Data published in patent US20160324820A1, “PHARMACEUTICAL COMPOSITIONS COMPRISING 15-HEPE AND METHODS OF TREATING ASTHMA AND LUNG DISORDERS USING SAME” (Dignity Sciences Limited, priority 2014, published 2016).

System: Hartley guinea pigs
Assay: Histamine-induced bronchoconstriction following seven days of oral gavage in anesthetized, ventilated guinea pigs
Assay type: in vivo, guinea pig
Details: for Change from baseline Respiratory Resistance (ventilator pressure), Average RR / Change from baseline Respiratory Resistance (ventilator pressure), Average VP: n=3
Description: In an embodiment, the pharmacodynamics of a composition comprising 15-HEPE as disclosed herein may be examined using a model of a lung disease or disorder. In a more detailed embodiment, the effects of a composition comprising a vehicle, a positive control or 15-HEPE on ventilator pressure in histamine challenged guinea pigs serves as a model for the pharmacodynamics in asthma. In an exemplary method, guinea pigs are first dosed with compositions comprising a vehicle, a positive control or 15-HEPE for seven days. The treated guinea pigs can then be anesthetized and exposed to a nebulized bronchoconstictor to determine if 15-HEPE can reduce the increase in ventilatory pressure induced by a bronchoconstrictor. This serves as an effective model for asthma and other lung diseases. The guinea pig is a reliable animal model in respiratory research due to their respiratory sensitivity and their expression of similar respiratory reactions to those observed in humans. […] Adult male Hartley guinea pigs weighing approximately 450-500 g were acclimated least 5 days before the day of the beginning of the oral gavages. Animals were assigned to one of four groups (low dose, high dose, vehicle and positive control) and were double-housed per group during acclimation period. The test article was formulated using olive oil as the vehicle. A low and a high dose of 15-HEPE (50 mg/kg and 500 mg/kg) was formulated. A 1 mg/ml stock solution of bambuterol was prepared in an aqueous solution, and was then mixed with olive oil in the gavage syringe for the […]. The stock solution was stored at −20° C., but was used at room temperature and was considered stable for the duration of the experiment. A 5 μg/ml stock solution of histamine dihydrochloride (Sigma Aldrich) was prepared in a saline solution (0.9% NaCl). The stock solution was stored at 4° C. The expiration date was set at 14 days after preparation. The concentrations of positive control, (bambuterol 0.27 mg/kg/day) and the hypertensor (histamine 0.184, 0.919 and 1.84 μg/kg) were selected based on literature references. Each group received the designated compound by oral gavage using a 1 ml syringe. The dosing schedule was as follows: • Vehicle (olive oil) • Bambuterol 0.27 mg/kg/day • 15-HEPE 50 mg/kg/day • 15-HEPE 500 mg/kg/day The stock solutions were administered once per day for seven consecutive days. On the seventh dosage day the animals underwent surgery two hours after the oral feeding. All animal care and vivarium maintenance were recorded, with documents kept at the test facility. Guinea pigs were anesthetized with an intraperitoneal injection of urethane (1.5 g/kg). A tracheotomy was performed and the animals were mechanically ventilated throughout the experiment. The ventilatory pressure was recorded and analyzed for signs of bronchospasm. A pulse oxymeter was attached to each animal's hind paw to obtain heart beat and oxygen saturation on the anaesthetized guinea pigs to continuously monitor the general condition of the animals during the surgical procedure. Following baseline measurements, three doses of histamine (0.184, 0.919 and 1.84 μg/kg) were nebulized (constant volume tidal, 60 respirations per minute, 7.5 ml/sec), with an interval of 20 minutes between each dose, or until a steady state was reached. Respiratory resistance, heart rate, and oxygen saturation were monitored continuously for a period of about 1 hour post challenge. At the end of the experiment, the animals were euthanized by exsanguination. Clampfit 10.2.0.14 analysis software (Axon Instruments), installed on networked personal computers running Microsoft Windows was used. Clampfit 10.2.0.14 has been fully validated in the connected context in which it was used. The graphics software for illustrations is Microsoft Office Excel 2007 installed on networked personal computers running Microsoft Windows. […]

[1] = 15-HEPE 500 mg/kg/day gavage 7 days, nebulized histamine 0.184 (μg/kg)
[2] = 15-HEPE 500 mg/kg/day gavage 7 days, nebulized histamine 0.919 (μg/kg)
[3] = 15-HEPE 500 mg/kg/day gavage 7 days, nebulized histamine 1.84 (μg/kg)
[4] = bambuterol 0.27 mg/kg/day gavage 7 days, nebulized histamine 0.184 (μg/kg)
[5] = bambuterol 0.27 mg/kg/day gavage 7 days, nebulized histamine 0.919 (μg/kg)
[6] = bambuterol 0.27 mg/kg/day gavage 7 days, nebulized histamine 1.84 (μg/kg)

## CCC=CCC(O)C=CC=CCC=CCC=CCCCC(=O)O (stereo not shown) [15-HEPE, 15-Hydroxy-eicosa-5,8,11,13,17-pentaenoic acid]
[1]
  Change from baseline Respiratory Resistance (ventilator pressure), Guinea pig #1: 0.2098 mmHg
  Change from baseline Respiratory Resistance (ventilator pressure), Guinea pig #2: 1.657 mmHg
  Change from baseline Respiratory Resistance (ventilator pressure), Guinea pig #3: 0.6489 mmHg
  Change from baseline Respiratory Resistance (ventilator pressure), Average RR: 0.84 mmHg
[2]
  Change from baseline Respiratory Resistance (ventilator pressure), Guinea pig #1: 0.8494 mmHg
  Change from baseline Respiratory Resistance (ventilator pressure), Guinea pig #2: 1.37 mmHg
  Change from baseline Respiratory Resistance (ventilator pressure), Guinea pig #3: 2.34 mmHg
  Change from baseline Respiratory Resistance (ventilator pressure), Average RR: 1.52 mmHg
[3]
  Change from baseline Respiratory Resistance (ventilator pressure), Guinea pig #1: 2.169 mmHg
  Change from baseline Respiratory Resistance (ventilator pressure), Guinea pig #2: 1.791 mmHg
  Change from baseline Respiratory Resistance (ventilator pressure), Guinea pig #3: 3.913 mmHg
  Change from baseline Respiratory Resistance (ventilator pressure), Average RR: 2.62 mmHg
Test animals challenged with a bronchoconstrictor, result in words
  lung ventilatory pressure: improve lung ventilatory pressure

## CN(C)C(=O)Oc1cc(OC(=O)N(C)C)cc(C(O)CNC(C)(C)C)c1 (stereo not shown) [Bambuterol, bambuterol, reference compound]
[4]
  Change from baseline Respiratory Resistance (ventilator pressure), Guinea pig #1: 0.2759 mmHg
  Change from baseline Respiratory Resistance (ventilator pressure), Guinea pig #2: −0.05857 mmHg
  Change from baseline Respiratory Resistance (ventilator pressure), Guinea pig #3: 1.238 mmHg
  Change from baseline Respiratory Resistance (ventilator pressure), Average VP: 0.48 mmHg
[5]
  Change from baseline Respiratory Resistance (ventilator pressure), Guinea pig #1: 1.099 mmHg
  Change from baseline Respiratory Resistance (ventilator pressure), Guinea pig #2: 1.219 mmHg
  Change from baseline Respiratory Resistance (ventilator pressure), Guinea pig #3: 2.266 mmHg
  Change from baseline Respiratory Resistance (ventilator pressure), Average VP: 1.53 mmHg
[6]
  Change from baseline Respiratory Resistance (ventilator pressure), Guinea pig #1: 2.215 mmHg
  Change from baseline Respiratory Resistance (ventilator pressure), Guinea pig #2: 1.945 mmHg
  Change from baseline Respiratory Resistance (ventilator pressure), Guinea pig #3: 2.651 mmHg
  Change from baseline Respiratory Resistance (ventilator pressure), Average VP: 2.27 mmHg
